This note sets out measurements from ChEMBL document CHEMBL3991601, “The target landscape of clinical kinase drugs” (Science, 2017).

For test [1], the target named is Midasin (Homo sapiens, UniProt Q9NU22).
In test [2] the target is T1, Activin receptor type-1 (Homo sapiens, UniProt Q04771).
T1 sequence (Q04771 whole entry): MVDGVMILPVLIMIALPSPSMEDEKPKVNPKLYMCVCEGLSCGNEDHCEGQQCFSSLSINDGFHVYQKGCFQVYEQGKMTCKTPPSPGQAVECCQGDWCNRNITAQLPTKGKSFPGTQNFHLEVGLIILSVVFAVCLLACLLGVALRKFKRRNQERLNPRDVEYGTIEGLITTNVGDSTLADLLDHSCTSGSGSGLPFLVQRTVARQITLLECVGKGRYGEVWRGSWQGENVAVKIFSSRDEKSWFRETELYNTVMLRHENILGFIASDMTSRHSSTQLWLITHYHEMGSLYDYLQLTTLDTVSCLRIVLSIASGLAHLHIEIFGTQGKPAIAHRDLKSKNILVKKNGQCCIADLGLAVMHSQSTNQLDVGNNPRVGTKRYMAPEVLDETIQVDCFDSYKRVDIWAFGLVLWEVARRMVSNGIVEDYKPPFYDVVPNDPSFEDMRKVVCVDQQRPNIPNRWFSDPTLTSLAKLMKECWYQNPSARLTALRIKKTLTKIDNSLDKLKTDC

In test [3] the target is Serine/threonine-protein kinase MRCK beta (Homo sapiens, UniProt Q9Y5S2).
Test [4] deals with Ephrin type-A receptor 4 (Homo sapiens, UniProt P54764).
Test [5] concerns the target Glycogen synthase kinase-3 alpha (Homo sapiens, UniProt P49840).
In test [6] the target is T2, AarF domain-containing protein kinase 1 (Homo sapiens, UniProt Q86TW2).
T2 sequence (Q86TW2 whole entry): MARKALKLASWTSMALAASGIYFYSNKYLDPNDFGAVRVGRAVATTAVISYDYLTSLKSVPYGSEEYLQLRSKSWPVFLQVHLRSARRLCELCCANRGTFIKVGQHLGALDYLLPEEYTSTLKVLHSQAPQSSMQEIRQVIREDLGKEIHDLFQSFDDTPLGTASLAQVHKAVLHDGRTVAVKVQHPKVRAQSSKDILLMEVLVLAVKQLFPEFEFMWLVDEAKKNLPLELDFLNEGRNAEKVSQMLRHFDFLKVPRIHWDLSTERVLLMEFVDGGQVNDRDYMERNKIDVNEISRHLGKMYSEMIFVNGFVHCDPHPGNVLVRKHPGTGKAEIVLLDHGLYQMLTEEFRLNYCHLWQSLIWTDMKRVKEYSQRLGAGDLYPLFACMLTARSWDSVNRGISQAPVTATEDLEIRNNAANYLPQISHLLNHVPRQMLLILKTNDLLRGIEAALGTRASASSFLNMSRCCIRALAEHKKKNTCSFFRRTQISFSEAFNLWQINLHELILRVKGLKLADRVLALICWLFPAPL

Test [7] addresses Serine/threonine-protein kinase 16 (Homo sapiens, UniProt O75716).
In test [8] the target is Casein kinase II subunit alpha' (Homo sapiens, UniProt P19784).
Test [9] has as its target T3, Serine/threonine-protein kinase ULK3 (Homo sapiens, UniProt Q6PHR2).
T3 sequence (Q6PHR2 whole entry): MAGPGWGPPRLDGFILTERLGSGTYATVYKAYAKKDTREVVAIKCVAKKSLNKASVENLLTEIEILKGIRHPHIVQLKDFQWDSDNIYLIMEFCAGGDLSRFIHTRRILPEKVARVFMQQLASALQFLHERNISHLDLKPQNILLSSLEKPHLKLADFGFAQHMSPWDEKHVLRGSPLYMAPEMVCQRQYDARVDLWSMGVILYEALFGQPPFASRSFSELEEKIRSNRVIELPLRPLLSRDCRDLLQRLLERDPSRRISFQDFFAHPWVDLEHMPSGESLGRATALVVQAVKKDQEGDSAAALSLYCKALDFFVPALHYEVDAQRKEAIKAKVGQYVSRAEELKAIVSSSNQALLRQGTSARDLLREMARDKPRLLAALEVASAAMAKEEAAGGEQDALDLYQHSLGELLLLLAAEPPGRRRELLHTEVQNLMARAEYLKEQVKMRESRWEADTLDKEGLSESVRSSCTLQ

Test [10] addresses T4, Bone morphogenetic protein receptor type-2 (Homo sapiens, UniProt Q13873).
T4 sequence (Q13873 whole entry): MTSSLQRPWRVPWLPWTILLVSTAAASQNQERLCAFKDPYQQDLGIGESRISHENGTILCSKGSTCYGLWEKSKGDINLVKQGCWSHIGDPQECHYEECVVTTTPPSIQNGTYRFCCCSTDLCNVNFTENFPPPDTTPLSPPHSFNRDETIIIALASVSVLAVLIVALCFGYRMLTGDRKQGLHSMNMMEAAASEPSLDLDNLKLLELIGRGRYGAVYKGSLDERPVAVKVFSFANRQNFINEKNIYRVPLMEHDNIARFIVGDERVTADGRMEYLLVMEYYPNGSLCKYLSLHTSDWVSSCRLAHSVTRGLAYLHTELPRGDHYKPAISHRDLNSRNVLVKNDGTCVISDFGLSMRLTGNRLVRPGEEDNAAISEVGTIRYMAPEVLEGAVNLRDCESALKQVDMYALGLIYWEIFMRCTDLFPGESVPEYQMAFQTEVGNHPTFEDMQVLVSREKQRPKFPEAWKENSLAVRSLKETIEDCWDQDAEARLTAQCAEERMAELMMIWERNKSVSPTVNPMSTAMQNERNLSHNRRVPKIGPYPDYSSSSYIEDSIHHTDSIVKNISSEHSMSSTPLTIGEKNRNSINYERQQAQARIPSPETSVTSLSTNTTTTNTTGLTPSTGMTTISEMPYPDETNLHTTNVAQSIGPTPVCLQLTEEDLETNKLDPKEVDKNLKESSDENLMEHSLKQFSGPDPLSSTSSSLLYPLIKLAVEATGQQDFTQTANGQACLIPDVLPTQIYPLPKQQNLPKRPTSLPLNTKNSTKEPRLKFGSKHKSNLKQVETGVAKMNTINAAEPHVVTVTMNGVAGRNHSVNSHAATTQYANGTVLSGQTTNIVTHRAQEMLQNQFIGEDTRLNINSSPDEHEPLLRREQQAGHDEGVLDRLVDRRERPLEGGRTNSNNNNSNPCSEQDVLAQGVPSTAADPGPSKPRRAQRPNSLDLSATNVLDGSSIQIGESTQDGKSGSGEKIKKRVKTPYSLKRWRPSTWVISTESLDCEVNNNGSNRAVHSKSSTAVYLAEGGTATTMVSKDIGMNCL

In general, Kd refers to the free concentration of one partner at which half of the binding sites on the other are occupied at equilibrium, for simple one-to-one binding.

Calls of active or inactive are those of the source. Rule as the data show it, for most assays here: actives have a measured Kd and inactives only a lower limit.
Also: in the data inactive means no Kd found up to 30 µM.

Chain of Serine/threonine-protein kinase MRCK beta (Q9Y5S2 whole entry): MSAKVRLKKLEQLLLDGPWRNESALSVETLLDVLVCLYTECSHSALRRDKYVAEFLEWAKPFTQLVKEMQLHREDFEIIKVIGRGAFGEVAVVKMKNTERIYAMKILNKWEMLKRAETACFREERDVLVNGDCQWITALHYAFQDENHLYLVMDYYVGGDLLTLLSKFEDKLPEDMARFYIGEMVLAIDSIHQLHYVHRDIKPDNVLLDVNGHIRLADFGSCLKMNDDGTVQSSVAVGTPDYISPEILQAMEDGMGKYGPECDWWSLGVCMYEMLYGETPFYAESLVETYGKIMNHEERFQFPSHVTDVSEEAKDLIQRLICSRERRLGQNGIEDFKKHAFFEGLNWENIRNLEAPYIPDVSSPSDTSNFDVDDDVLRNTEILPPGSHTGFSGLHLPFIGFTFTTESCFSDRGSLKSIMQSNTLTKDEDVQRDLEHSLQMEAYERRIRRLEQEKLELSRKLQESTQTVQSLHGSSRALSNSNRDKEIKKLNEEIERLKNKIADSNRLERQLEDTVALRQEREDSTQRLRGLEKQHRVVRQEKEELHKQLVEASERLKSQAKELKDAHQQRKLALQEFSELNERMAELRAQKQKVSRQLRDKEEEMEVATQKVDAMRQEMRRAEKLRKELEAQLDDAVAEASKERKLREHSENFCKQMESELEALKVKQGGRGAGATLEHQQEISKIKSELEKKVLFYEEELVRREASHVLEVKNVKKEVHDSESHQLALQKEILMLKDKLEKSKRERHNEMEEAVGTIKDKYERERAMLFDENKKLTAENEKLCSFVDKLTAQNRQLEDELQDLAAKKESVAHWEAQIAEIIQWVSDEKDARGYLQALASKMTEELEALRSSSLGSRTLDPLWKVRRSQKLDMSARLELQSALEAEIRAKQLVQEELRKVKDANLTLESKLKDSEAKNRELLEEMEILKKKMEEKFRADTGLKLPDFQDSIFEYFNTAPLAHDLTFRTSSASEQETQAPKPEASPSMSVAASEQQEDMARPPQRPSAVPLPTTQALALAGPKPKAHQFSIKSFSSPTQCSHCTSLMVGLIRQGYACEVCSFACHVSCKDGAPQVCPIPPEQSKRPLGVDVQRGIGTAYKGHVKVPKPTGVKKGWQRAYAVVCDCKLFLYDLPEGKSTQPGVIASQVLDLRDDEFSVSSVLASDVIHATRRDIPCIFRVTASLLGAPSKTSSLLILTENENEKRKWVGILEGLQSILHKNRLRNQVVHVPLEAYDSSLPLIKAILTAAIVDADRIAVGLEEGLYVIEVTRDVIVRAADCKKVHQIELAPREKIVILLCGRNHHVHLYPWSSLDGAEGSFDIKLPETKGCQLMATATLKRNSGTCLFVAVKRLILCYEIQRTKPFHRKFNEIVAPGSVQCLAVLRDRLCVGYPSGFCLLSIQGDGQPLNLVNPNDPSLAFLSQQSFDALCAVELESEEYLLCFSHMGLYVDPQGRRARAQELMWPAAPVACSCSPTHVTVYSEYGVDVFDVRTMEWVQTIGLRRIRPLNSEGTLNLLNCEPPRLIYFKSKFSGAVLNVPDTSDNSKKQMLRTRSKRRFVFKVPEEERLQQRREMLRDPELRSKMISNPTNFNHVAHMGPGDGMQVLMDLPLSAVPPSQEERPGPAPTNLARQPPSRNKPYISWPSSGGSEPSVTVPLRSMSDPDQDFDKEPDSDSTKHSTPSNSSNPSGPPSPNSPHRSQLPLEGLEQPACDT
Chain of Serine/threonine-protein kinase 16 (O75716 whole entry): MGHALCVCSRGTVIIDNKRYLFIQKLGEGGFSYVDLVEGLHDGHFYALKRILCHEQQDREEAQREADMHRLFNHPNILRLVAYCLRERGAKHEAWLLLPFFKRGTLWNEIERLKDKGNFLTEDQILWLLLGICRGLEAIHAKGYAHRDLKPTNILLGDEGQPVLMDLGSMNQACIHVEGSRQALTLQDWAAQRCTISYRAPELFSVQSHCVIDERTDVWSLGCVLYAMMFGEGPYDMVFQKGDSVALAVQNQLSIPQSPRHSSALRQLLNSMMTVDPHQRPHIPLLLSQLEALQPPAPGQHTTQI
Chain of Casein kinase II subunit alpha' (P19784 whole entry): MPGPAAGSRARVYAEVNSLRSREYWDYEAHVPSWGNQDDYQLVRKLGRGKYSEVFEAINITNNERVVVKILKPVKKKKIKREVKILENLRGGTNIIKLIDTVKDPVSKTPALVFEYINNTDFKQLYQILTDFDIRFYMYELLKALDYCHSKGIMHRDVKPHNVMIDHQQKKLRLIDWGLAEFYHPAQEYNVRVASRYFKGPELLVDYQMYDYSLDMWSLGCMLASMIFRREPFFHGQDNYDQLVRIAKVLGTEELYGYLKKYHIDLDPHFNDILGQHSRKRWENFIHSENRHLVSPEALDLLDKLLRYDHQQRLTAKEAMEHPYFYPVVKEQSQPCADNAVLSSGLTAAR
Chain of Ephrin type-A receptor 4 (P54764 whole entry): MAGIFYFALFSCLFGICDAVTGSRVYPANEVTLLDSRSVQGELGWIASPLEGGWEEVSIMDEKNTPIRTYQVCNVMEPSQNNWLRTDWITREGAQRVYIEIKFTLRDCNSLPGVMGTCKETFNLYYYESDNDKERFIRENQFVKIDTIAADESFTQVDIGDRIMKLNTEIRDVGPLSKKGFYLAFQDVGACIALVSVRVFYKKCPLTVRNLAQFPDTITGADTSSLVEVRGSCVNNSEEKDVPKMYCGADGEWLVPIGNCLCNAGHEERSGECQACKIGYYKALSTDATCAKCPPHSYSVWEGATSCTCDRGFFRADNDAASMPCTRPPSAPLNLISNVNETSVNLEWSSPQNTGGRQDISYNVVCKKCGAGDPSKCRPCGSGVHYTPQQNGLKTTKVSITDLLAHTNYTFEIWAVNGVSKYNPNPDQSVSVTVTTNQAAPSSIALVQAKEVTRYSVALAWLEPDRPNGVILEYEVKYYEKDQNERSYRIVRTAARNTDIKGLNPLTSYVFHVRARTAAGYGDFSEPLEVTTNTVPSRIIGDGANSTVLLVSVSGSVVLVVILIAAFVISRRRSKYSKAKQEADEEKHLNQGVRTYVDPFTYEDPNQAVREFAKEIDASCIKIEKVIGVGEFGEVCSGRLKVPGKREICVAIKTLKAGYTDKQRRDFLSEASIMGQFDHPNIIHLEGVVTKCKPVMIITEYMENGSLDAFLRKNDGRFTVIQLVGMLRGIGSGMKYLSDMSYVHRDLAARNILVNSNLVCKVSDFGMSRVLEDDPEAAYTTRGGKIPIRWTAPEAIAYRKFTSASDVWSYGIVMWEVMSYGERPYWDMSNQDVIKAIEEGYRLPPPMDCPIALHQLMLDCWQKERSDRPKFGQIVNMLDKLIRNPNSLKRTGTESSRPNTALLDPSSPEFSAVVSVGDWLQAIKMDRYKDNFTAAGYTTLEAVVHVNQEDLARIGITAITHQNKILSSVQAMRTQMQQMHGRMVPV
Chain of Glycogen synthase kinase-3 alpha (P49840 whole entry, the tested form may be a part): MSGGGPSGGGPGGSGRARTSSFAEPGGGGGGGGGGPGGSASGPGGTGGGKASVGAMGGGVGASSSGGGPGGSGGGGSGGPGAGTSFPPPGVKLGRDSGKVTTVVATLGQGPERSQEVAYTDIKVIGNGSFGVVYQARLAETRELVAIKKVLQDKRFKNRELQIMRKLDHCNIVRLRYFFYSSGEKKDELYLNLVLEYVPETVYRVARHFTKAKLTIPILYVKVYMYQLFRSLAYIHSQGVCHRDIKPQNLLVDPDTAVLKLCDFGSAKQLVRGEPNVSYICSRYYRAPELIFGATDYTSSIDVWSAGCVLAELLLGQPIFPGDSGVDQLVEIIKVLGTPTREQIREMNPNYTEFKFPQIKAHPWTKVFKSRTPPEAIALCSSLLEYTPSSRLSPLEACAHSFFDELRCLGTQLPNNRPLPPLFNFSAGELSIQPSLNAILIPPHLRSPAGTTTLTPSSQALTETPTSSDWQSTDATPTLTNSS

In the case of `C[C@@H](Oc1cc(C(=O)Nc2ccc(C(=O)N3CCN(C)CC3)cc2)nnc1N)c1c(Cl)ccc(F)c1Cl`, the Kd in test [1], in test [2], in [3], in [4], in test [5] and in test [6] was > 30 µM (inactive) each time. The Kd in [7], in test [8], in [9] and in [10] was > 30 µM (inactive) throughout.
Turning to `C[C@H]1CNCCCN1S(=O)(=O)c1cccc2cncc(F)c12`, the Kd in [1], in [2], in [3], in test [4], in test [5] and in test [6] was > 30 µM (inactive) throughout. Also, the Kd in test [7], in [8], in test [9] and in test [10] was > 30 µM (inactive) throughout.
Turning to `CCNC(=O)C#Cc1ccc2c(c1)NC(=O)/C2=C(\Nc1ccc(CN(C)C)cc1)c1ccccc1`, the Kd in test [1] was 1.32 µM; in test [2], > 30 µM (inactive); in test [3] it was > 30 µM (inactive); in test [4], > 30 µM (inactive); in test [5], > 30 µM (inactive); in test [6], > 30 µM (inactive). Also, the Kd was > 30 µM (inactive) in [7], > 30 µM (inactive) in [8], 0.612 µM (active) in test [9] and > 30 µM (inactive) in test [10].
`C=CC(=O)N1CCC[C@H](n2c(=O)n(-c3ccc(Oc4ccccc4)cc3)c3c(N)ncnc32)C1`: the Kd in [1], in test [2], in test [3], in [4], in test [5] and in test [6] was > 30 µM (inactive) throughout. In addition, the Kd in test [7], in test [8], in test [9] and in test [10] was > 30 µM (inactive) throughout.
`Cc1nc2cc(-c3nn(C(C)C)c4ncnc(N)c34)ccc2o1`: the Kd in [1] is > 30 µM (inactive); in test [2], 0.04 µM (active); in test [3], > 30 µM (inactive); in test [4], > 30 µM (inactive); in [5], > 30 µM (inactive); in test [6] it was > 30 µM (inactive). Also, the Kd was 2.01 µM (active) in [7], > 30 µM (inactive) in test [8], > 30 µM (inactive) in test [9] and > 30 µM (inactive) in test [10].
As to `COCc1c(-c2ccc(NC(=O)Nc3cc(C(F)(F)F)ccc3F)c(F)c2)c2c(N)ncnn2c1CN1CCOCC1`, the Kd in test [1], in test [2], in [3], in test [4], in test [5] and in test [6] was > 30 µM (inactive) each time. For the same compound, the Kd in [7], in [8], in test [9] and in test [10] was > 30 µM (inactive) throughout.
As for `Nc1ncnc2c1c(-c1cccc(OCc3ccccc3)c1)cn2[C@H]1C[C@@H](CN2CCC2)C1` [AEW-541], the Kd in test [1] was > 30 µM (inactive); in [2], 1.2 µM (active); in test [3] it was > 30 µM (inactive); in [4], > 30 µM (inactive); in test [5] it was > 30 µM (inactive); in test [6], > 30 µM (inactive). For the same compound, the Kd in [7], in test [8], in [9] and in test [10] was > 30 µM (inactive) in each case.
For `Cc1nc(NC(=O)N2CCC[C@H]2C(N)=O)sc1-c1ccnc(C(C)(C)C(F)(F)F)c1` [ALPELISIB], the Kd in [1], in test [2], in test [3], in test [4], in [5] and in test [6] was > 30 µM (inactive) throughout. Further, the Kd in test [7], in [8], in test [9] and in [10] was > 30 µM (inactive) in each case.
Consider `Cc1csc(-c2nnc(Nc3ccc(Oc4ncccc4-c4ccnc(N)n4)cc3)c3ccccc23)c1` [AMG-900], for which the Kd in test [2], in [3], in [4], in test [5], in test [6] and in test [7] was > 30 µM (inactive) each time. Also, the Kd in test [8], in test [9] and in [10] was > 30 µM (inactive) each time.
Turning to `C=CC(=O)Nc1cc2c(Nc3ccc(F)c(Cl)c3)ncnc2cc1C#CC(C)(C)N1CCN(C)CC1` [AV-412 FREE BASE], the Kd in test [1], in test [2], in test [3], in test [4], in [5] and in [6] was > 30 µM (inactive) in each case. The Kd in [7], in test [8], in test [9] and in [10] was > 30 µM (inactive) throughout.
